In BindingDB's records for doi:10.1021/jm00116a004 (Northeastern University, 1992):
pKi: −log10 of the molar value.

Columns and labels:
[1] = biological target: D(2) dopamine receptor (Sus scrofa); assay: The compound was evaluated for the binding affinity towards Dopamine receptor D2 at low affinity state.
[2] = biological target: D(2) dopamine receptor (Sus scrofa); assay: The compound was evaluated for the binding affinity towards Dopamine receptor D2 at high affinity state.
[3] = biological target: D(1A) dopamine receptor (Canis familiaris); assay: The compound was evaluated for the dissociation constant for inhibiting the binding of [3H]-SCH- 23390 at Dopamine receptor D1
[4] = biological target: D(2) dopamine receptor (Sus scrofa); assay: The compound was evaluated for the binding affinity towards dopamine receptor D2 at high affinity state.
[5] = biological target: D(1A) dopamine receptor (Canis familiaris); assay: The compound was evaluated for the dissociation constant for inhibiting the binding of [3H]-SCH- 23390 at dopamine receptor D1

pKi [1]	pKi [2]	pKi [3]	pKi [4]	pKi [5]	Structure (SMILES)
5.70	7.41	7.92	–	–	Oc1cc2c(c(Br)c1O)CCNCC2c1ccccc1 (configuration not stated)
–	–	–	6.31	8.92	CN1CCc2c(cc(O)c(O)c2Br)C(c2ccccc2)C1 (configuration not stated)
–	–	–	7.11	9.05	CN1CCc2c(cc(O)c(O)c2Cl)C(c2ccccc2)C1 (configuration not stated)
